Data published in US12059400B2, “Medical compound” (VERA SALUS RICERCA S.R.L., priority 2017, dated 2024).

Assays:
[1] = tested on: human colon carcinoma cells (HCT116); assay: Cell proliferation, crystal violet method; format: cell-based; settings: for HCT116 cell growth vs vehicle control: 10 μM and 30 μM, FIG. 15; for IC50: Homo sapiens, HCT-116, crystal violet, spectrophotometer, read-out: IC50 anti-proliferative effect, CRC (HCT116)
Experimental: (§1) The compound according to the invention, and in particular the synthetic quercetin derivatives described and illustrated herein were investigated in vitro by using human tumour cells and assessing their impact on the tumour proliferative capacity, with regard to the tumours described above. In particular, the following human tumour cell lines were assessed experimentally: 1) HCT116, colon adenocarcinoma cells; 2) H1299, lung adenocarcinoma cells; 3) A375, melanoma cells, and 4) A431, squamous skin cell carcinoma; 5) 786-0, renal carcinoma cells; 6) PC3, prostate carcinoma cells; 7) BT549, mammary carcinoma cells; 8) CAL27, tongue carcinoma cells (belonging to the head-and-neck carcinomas); 9) HepG2, hepatocellular carcinoma cells; 10) PANC-1, pancreas carcinoma cells; 11) T24, bladder carcinoma cells; 12) OVCAR-3, ovarian carcinoma cells. In addition, a normal human cell line, WS1 (skin fibroblasts) was also treated with the novel synthetic compounds.
(§2) Cell proliferation was quantified by the crystal violet method with a spectrophotometer. In short, after acquiring serial images (0, 24 and 48 hrs) with the EVOS XL Cell Imaging System microscope (Thermo Fisher Scientific), the cells imaged at 48 hrs were fixed with paraformaldehyde (4%) and stained with Crystal Violet (1%). Then, the specific absorbance (λ=590 nm) at 48 hrs was measured with a spectrophotometer (Infinite®200 PRO, Tecan). Data analysis was carried out by using ad-hoc Excel files for graphical representation and statistical processing (t-test). Moreover, the results obtained with Crystal Violet were confirmed by using another cell proliferation assessment method based on the real time cellular analyzer XCELLigence RTCA DP (ACEA Biosciences, Inc.). This tool allows cell growth to be monitored from electrical impedance-derived quantitative values (the so-called Cell Index) measured by tiny electrodes located at the base of the culture wells. Proliferation is monitored for several days (5-7) by setting a Cell Index per minute measure on the instrument. The data are analysed by processing various parameters calculated by the dedicated software, such as the cell duplication time, the slope and the Max Cell Index.
(§3) Cell proliferation was quantitated spectrophotometrically by the crystal violet method.

[2] = tested on: human melanoma cells (A375); assay: Cell proliferation, crystal violet method; format: cell-based; settings: for A375 cell growth vs vehicle control: 10 μM and 30 μM, FIG. 14; for IC50: Homo sapiens, A-375, crystal violet, spectrophotometer, read-out: IC50 anti-proliferative effect, Melanoma (A375)
Experimental: as §1, §2, §3

[3] = tested on: human colon carcinoma cells (HCT116); assay: Intracellular ROS levels, DCFH2-DA probe; format: cell-based; settings: 2 hrs of treatment; at the respective anti-proliferative IC50s; DCF fluorescence in A.U.; FIG. 22 left
Experimental: Intracellular ROS levels were measured in tumour cells by using the probe 2,7-dichlorodihydrofluorescein diacetate (DCFH2-DA) and a fluorescence spectrophotometer. DCFH2-DA diffuses readily through the cell membrane into the cytosolic space of the cell where it is hydrolyzed by intracellular esterases into the non-permeable DCFH2 product. DCFH2 oxidation by intracellular ROS (mainly H2O2, HO·, ROO·, NO· and ONOO) results in the production of intracellular fluorescent DCF, whose concentration is directly proportional to the levels of ROS in the cell. […] All the experiments were repeated at least 3 times. Data analysis was carried out with GraphPad Prism 6 for graphical representation and statistical processing (1-way ANOVA test).

[4] = tested on: human ovarian carcinoma cells (OVCAR-3); assay: Cell proliferation, crystal violet method; format: cell-based; settings: for OVCAR-3 cell growth vs vehicle control: 60 μM, FIG. 11a, 11b; for IC50: Homo sapiens, OVCAR-3, crystal violet, spectrophotometer, read-out: IC50 anti-proliferative effect, OCC - (OVCAR)
Experimental: as §1, §2, §3

[5] = tested on: SCC cells (A431); assay: Cell proliferation, crystal violet method; format: cell-based, human; settings: 90 μM; FIG. 2a, 2b
Experimental: as §2, with “The compound according to the invention, and in particular the synthetic quercetin derivatives described and illustrated herein were investigated in vitro by using human tumour cells and assessing their impact on the tumour proliferative capacity, with regard to the tumours described above. In particular, the following human tumour cell lines were assessed experimentally: 1) HCT116, colon adenocarcinoma cells; 2) H1299, lung adenocarcinoma cells; 3) A375, melanoma cells, and 4) A431, squamous skin cell carcinoma; 5) 786-0, renal carcinoma cells; 6) PC3, prostate carcinoma cells; 7) BT549, mammary carcinoma cells; 8) CAL27, tongue carcinoma cells (belonging to the head-and-neck carcinomas); 9) HepG2, hepatocellular carcinoma cells; 10) PANC-1, pancreas carcinoma cells; 11) T24, bladder carcinoma cells; 12) OVCAR-3, ovarian carcinoma cells. In addition, a normal human cell line, WS1 (skin fibroblasts) was also treated with the novel synthetic compounds. Cell proliferation” for “Cell proliferation”, “Cell Index. […] Cell proliferation was quantitated spectrophotometrically by the crystal violet method.” for “Cell Index.”

[6] = tested on: human bladder carcinoma cells (T24); assay: Cell proliferation, crystal violet method; format: cell-based; settings: 80 μM; FIG. 10a, 10b
Experimental: as §2, with “The compound according to the invention, and in particular the synthetic quercetin derivatives described and illustrated herein were investigated in vitro by using human tumour cells and assessing their impact on the tumour proliferative capacity, with regard to the tumours described above. In particular, the following human tumour cell lines were assessed experimentally: 1) HCT116, colon adenocarcinoma cells; 2) H1299, lung adenocarcinoma cells; 3) A375, melanoma cells, and 4) A431, squamous skin cell carcinoma; 5) 786-0, renal carcinoma cells; 6) PC3, prostate carcinoma cells; 7) BT549, mammary carcinoma cells; 8) CAL27, tongue carcinoma cells (belonging to the head-and-neck carcinomas); 9) HepG2, hepatocellular carcinoma cells; 10) PANC-1, pancreas carcinoma cells; 11) T24, bladder carcinoma cells; 12) OVCAR-3, ovarian carcinoma cells. In addition, a normal human cell line, WS1 (skin fibroblasts) was also treated with the novel synthetic compounds. Cell proliferation” for “Cell proliferation”, “Cell Index. […] Cell proliferation was quantitated spectrophotometrically by the crystal violet method.” for “Cell Index.”

[7] = tested on: human pancreatic carcinoma cells (PANC-1); assay: Cell proliferation, crystal violet method; format: cell-based; settings: 80 μM; FIG. 9a, 9b
Experimental: as §2, with “The compound according to the invention, and in particular the synthetic quercetin derivatives described and illustrated herein were investigated in vitro by using human tumour cells and assessing their impact on the tumour proliferative capacity, with regard to the tumours described above. In particular, the following human tumour cell lines were assessed experimentally: 1) HCT116, colon adenocarcinoma cells; 2) H1299, lung adenocarcinoma cells; 3) A375, melanoma cells, and 4) A431, squamous skin cell carcinoma; 5) 786-0, renal carcinoma cells; 6) PC3, prostate carcinoma cells; 7) BT549, mammary carcinoma cells; 8) CAL27, tongue carcinoma cells (belonging to the head-and-neck carcinomas); 9) HepG2, hepatocellular carcinoma cells; 10) PANC-1, pancreas carcinoma cells; 11) T24, bladder carcinoma cells; 12) OVCAR-3, ovarian carcinoma cells. In addition, a normal human cell line, WS1 (skin fibroblasts) was also treated with the novel synthetic compounds. Cell proliferation” for “Cell proliferation”, “Cell Index. […] Cell proliferation was quantitated spectrophotometrically by the crystal violet method.” for “Cell Index.”

[8] = tested on: human prostate carcinoma cells (PC3); assay: Cell proliferation, crystal violet method; format: cell-based; settings: 80 μM; FIG. 5a, 5b
Experimental: as §2, with “The compound according to the invention, and in particular the synthetic quercetin derivatives described and illustrated herein were investigated in vitro by using human tumour cells and assessing their impact on the tumour proliferative capacity, with regard to the tumours described above. In particular, the following human tumour cell lines were assessed experimentally: 1) HCT116, colon adenocarcinoma cells; 2) H1299, lung adenocarcinoma cells; 3) A375, melanoma cells, and 4) A431, squamous skin cell carcinoma; 5) 786-0, renal carcinoma cells; 6) PC3, prostate carcinoma cells; 7) BT549, mammary carcinoma cells; 8) CAL27, tongue carcinoma cells (belonging to the head-and-neck carcinomas); 9) HepG2, hepatocellular carcinoma cells; 10) PANC-1, pancreas carcinoma cells; 11) T24, bladder carcinoma cells; 12) OVCAR-3, ovarian carcinoma cells. In addition, a normal human cell line, WS1 (skin fibroblasts) was also treated with the novel synthetic compounds. Cell proliferation” for “Cell proliferation”, “Cell Index. […] Cell proliferation was quantitated spectrophotometrically by the crystal violet method.” for “Cell Index.”

[9] = tested on: human renal carcinoma cells (786-0); assay: Cell proliferation, crystal violet method; format: cell-based; settings: 80 μM; FIG. 4a, 4b
Experimental: as §2, with “The compound according to the invention, and in particular the synthetic quercetin derivatives described and illustrated herein were investigated in vitro by using human tumour cells and assessing their impact on the tumour proliferative capacity, with regard to the tumours described above. In particular, the following human tumour cell lines were assessed experimentally: 1) HCT116, colon adenocarcinoma cells; 2) H1299, lung adenocarcinoma cells; 3) A375, melanoma cells, and 4) A431, squamous skin cell carcinoma; 5) 786-0, renal carcinoma cells; 6) PC3, prostate carcinoma cells; 7) BT549, mammary carcinoma cells; 8) CAL27, tongue carcinoma cells (belonging to the head-and-neck carcinomas); 9) HepG2, hepatocellular carcinoma cells; 10) PANC-1, pancreas carcinoma cells; 11) T24, bladder carcinoma cells; 12) OVCAR-3, ovarian carcinoma cells. In addition, a normal human cell line, WS1 (skin fibroblasts) was also treated with the novel synthetic compounds. Cell proliferation” for “Cell proliferation”, “Cell Index. […] Cell proliferation was quantitated spectrophotometrically by the crystal violet method.” for “Cell Index.”

[10] = tested on: human skin fibroblasts (WS1); assay: Cell proliferation of normal cells, crystal violet method; format: cell-based; settings: at the indicated concentrations (not given); FIG. 17
Experimental: The compound according to the invention, and in particular the synthetic quercetin derivatives described and illustrated herein were investigated in vitro by using human tumour cells and assessing their impact on the tumour proliferative capacity, with regard to the tumours described above. In particular, the following human tumour cell lines were assessed experimentally: 1) HCT116, colon adenocarcinoma cells; 2) H1299, lung adenocarcinoma cells; 3) A375, melanoma cells, and 4) A431, squamous skin cell carcinoma; 5) 786-0, renal carcinoma cells; 6) PC3, prostate carcinoma cells; 7) BT549, mammary carcinoma cells; 8) CAL27, tongue carcinoma cells (belonging to the head-and-neck carcinomas); 9) HepG2, hepatocellular carcinoma cells; 10) PANC-1, pancreas carcinoma cells; 11) T24, bladder carcinoma cells; 12) OVCAR-3, ovarian carcinoma cells. In addition, a normal human cell line, WS1 (skin fibroblasts) was also treated with the novel synthetic compounds. Cell proliferation was quantified by the crystal violet method with a spectrophotometer. In short, after acquiring serial images (0, 24 and 48 hrs) with the EVOS XL Cell Imaging System microscope (Thermo Fisher Scientific), the cells imaged at 48 hrs were fixed with paraformaldehyde (4%) and stained with Crystal Violet (1%). Then, the specific absorbance (λ=590 nm) at 48 hrs was measured with a spectrophotometer (Infinite®200 PRO, Tecan). Data analysis was carried out by using ad-hoc Excel files for graphical representation and statistical processing (t-test). […] This tool allows cell growth to be monitored from electrical impedance-derived quantitative values (the so-called Cell Index) measured by tiny electrodes located at the base of the culture wells. Proliferation is monitored for several days (5-7) by setting a Cell Index per minute measure on the instrument. The data are analysed by processing various parameters calculated by the dedicated software, such as the cell duplication time, the slope and the Max Cell Index.

[11] = tested on: human melanoma cells (A375); assay: Cell cycle progression, propidium iodide method, cytofluorimeter; format: cell-based; settings: 24 hrs; at the respective anti-proliferative IC50s; FIG. 19
Experimental: Progression through the tumour cell cycle was assessed by the propidium iodide method and quantification of the cell DNA content with a cytofluorimeter. Briefly, after treatment (in duplicate) with the test compounds (24 hrs), the tumour cells were washed (with PBS), detached with trypsin-EDTA and pelleted by centrifugation (125 g for 6 min). The cells were then fixed in ethanol (70%) and stored in the freezer (−20° C.) for 1-3 days. After further washing (PBS) and treatment with RNAse (50 ug/ml), the cells were contacted (on ice in the dark; 30 min) with propidium iodide (50 μg/ml). FL2 and FL3 cytofluorimeter readings analysed approximately 50,000 cells (1 μl/second) per sample. Statistical analysis and graphical representation were performed by using t-tests and preset Excel property files.

IC50 [1]	IC50 [2]	IC50 [4]	SMILES	HCT116 cell growth vs vehicle control [1]	A375 cell growth vs vehicle control [2]	intracellular ROS levels in HCT116 cells [3]	OVCAR-3 cell growth vs vehicle control [4]	A431 cell growth vs vehicle control [5]	T24 cell growth vs vehicle control [6]	PANC-1 cell growth vs vehicle control [7]	PC3 cell growth vs vehicle control [8]	786-0 cell growth vs vehicle control [9]	proliferation of normal human skin fibroblasts (WS1) vs vehicle control [10]	halt of A375 tumour cells in S and/or G2 of the cell cycle [11]
5.51 µM	9.48 µM	–	O=C(NCCOCCOc1c(-c2ccc(O)c(O)c2)oc2cc(O)cc(O)c2c1=O)c1ccc(-c2ccc(C(=O)NCCOCCOc3c(-c4ccc(O)c(O)c4)oc4cc(O)cc(O)c4c3=O)cc2)cc1 [Compound 19b]	significantly inhibited	significantly inhibited	significantly raise	–	–	–	–	–	–	–	–
–	–	–	O=c1c(O)c(-c2ccc(O)c(O)c2)oc2cc(O)cc(O)c12 [quercetin, Quercetin, reference compound]	–	–	has no effect	has no effect	has no effect	has no effect	has no effect	modest anti-proliferative effects	has no effect	do not disrupt	significantly halt
–	–	–	O=c1cc(-c2ccc(O)cc2)oc2cc(O)cc(O)c12 [apigenin]	–	–	–	–	–	–	–	–	–	significantly inhibits	–
3.08 µM	5.17 µM	11.8 µM	CC/C=C\C/C=C\C/C=C\C/C=C\C/C=C\C/C=C\CCC(=O)NCCOCCOc1c(-c2ccc(O)c(O)c2)oc2cc(O)cc(O)c2c1=O [Compound 29f]	significantly inhibited	significantly inhibited	–	significantly inhibit	–	–	–	–	–	–	–
0.74 µM	1.62 µM	5.01 µM	O=C(NCCOCCOc1c(-c2ccc(O)c(O)c2)oc2cc(O)cc(O)c2c1=O)c1ccc(OCCCCCCOc2ccc(C(=O)NCCOCCOc3c(-c4ccc(O)c(O)c4)oc4cc(O)cc(O)c4c3=O)cc2)cc1 [Compound 19d]	significantly inhibited	significantly inhibited	–	significantly inhibit	–	–	–	–	–	–	–
